According to the supplement of paper PMC13380429:
± gives the standard deviation of the averaged measurements.

Key:
Settings in all cases: 72 h
Calu-3 [1] = assay: relative viability EC50 (midpoint between 100% and the lowest measured viability); higher = less toxic
Caco-2 [2] = assay: as above
Vero E6 [3] = assay: as above
U2OS [4] = assay: as above
HepG2 [5] = assay: as above
Calu-3 [6] = assay: cell viability relative to DMSO; higher = less toxic
Caco-2 [7] = assay: as above
Vero E6 [8] = assay: as above
U2OS [9] = assay: as above
HepG2 [10] = assay: as above
Calu-3 [11] = assay: drug sensitivity score (DSS) for viability; higher = more toxic; extreme values may be limits of the assay
Caco-2 [12] = assay: as above
Vero E6 [13] = assay: as above
U2OS [14] = assay: as above
HepG2 [15] = assay: as above

| Structure (SMILES) | relative viability EC50 (Calu-3 [1]) [µM] | relative viability EC50 (Caco-2 [2]) [µM] | relative viability EC50 (Vero E6 [3]) [µM] | relative viability EC50 (U2OS [4]) [µM] | relative viability EC50 (HepG2 [5]) [µM] | cell viability (Calu-3 [6]; 1 nM) [%] | cell viability (Calu-3 [6]; 10 nM) [%] | cell viability (Calu-3 [6]; 100 nM) [%] | cell viability (Calu-3 [6]; 1000 nM) [%] | cell viability (Calu-3 [6]; 10000 nM) [%] | cell viability (Caco-2 [7]; 1 nM) [%] | cell viability (Caco-2 [7]; 10 nM) [%] | cell viability (Caco-2 [7]; 100 nM) [%] | cell viability (Caco-2 [7]; 1000 nM) [%] | cell viability (Caco-2 [7]; 10000 nM) [%] | cell viability (Vero E6 [8]; 1 nM) [%] | cell viability (Vero E6 [8]; 10 nM) [%] | cell viability (Vero E6 [8]; 100 nM) [%] | cell viability (Vero E6 [8]; 1000 nM) [%] | cell viability (Vero E6 [8]; 10000 nM) [%] | cell viability (U2OS [9]; 1 nM) [%] | cell viability (U2OS [9]; 10 nM) [%] | cell viability (U2OS [9]; 100 nM) [%] | cell viability (U2OS [9]; 1000 nM) [%] | cell viability (U2OS [9]; 10000 nM) [%] | cell viability (HepG2 [10]; 1 nM) [%] | cell viability (HepG2 [10]; 10 nM) [%] | cell viability (HepG2 [10]; 100 nM) [%] | cell viability (HepG2 [10]; 1000 nM) [%] | cell viability (HepG2 [10]; 10000 nM) [%] | drug sensitivity score (Calu-3 [11]) | drug sensitivity score (Caco-2 [12]) | drug sensitivity score (Vero E6 [13]) | drug sensitivity score (U2OS [14]) | drug sensitivity score (HepG2 [15]) |
| --- | --- | --- | --- | --- | --- | --- | --- | --- | --- | --- | --- | --- | --- | --- | --- | --- | --- | --- | --- | --- | --- | --- | --- | --- | --- | --- | --- | --- | --- | --- | --- | --- | --- | --- | --- |
| CN(C)c1ccc(/C=C2\CCCN=C2c2cccnc2)cc1 [DMAB-anabaseine] | > 10 | > 10 | > 10 | > 10 | > 10 | 101 | 109 | 139 | 105 | 88.8 | 103 | 107 | 103 | 120 | 76.2 | 105 | 92.4 | 99.3 | 93.5 | 91.5 | 94.2 | 96.4 | 97.4 | 94.4 | 93.6 | 109 | 90.2 | 98.2 | 99.7 | 87.4 | 0 | 0.4 | 0 | 0 | 0.1 |
| CS(=O)(=O)c1ccc(-c2cc(Br)sc2-c2ccc(F)cc2)cc1 [DUP-697] | > 10 | > 10 | > 10 | > 10 | > 10 | 97.2 | 98 | 103 | 112 | 114 | 110 | 95.1 | 102 | 104 | 88.2 | 95.6 | 101 | 93.4 | 96.5 | 97.8 | 103 | 98.1 | 103 | 105 | 104 | 103 | 107 | 105 | 104 | 79.5 | 0 | 0 | 0 | 0 | 0.4 |
| COc1c(C)cnc(Cn2cc(C#CCC(C)(C)O)c3c(Cl)nc(N)nc32)c1C [EC-144] | 0.152 | 0.189 | 0.413 | 0.319 | 0.0735 | 104 | 108 | 84.3 | 39.4 | 49.5 | 105 | 97.3 | 88.8 | 33.1 | 39.9 | 99.3 | 102 | 105 | 37.3 | 32.8 | 110 | 107 | 94.5 | 9.2 | 3.5 | 96.4 | 103 | 32.3 | 1.2 | 1.3 | 13.6 | 14.2 | 11.3 | 17.3 | 25.6 |
| CCOC(=O)c1ncn2c1[C@@H]1CCCN1C(=O)c1cc(OC)ccc1-2 [L-655,708] | > 10 | > 10 | > 10 | > 10 | > 10 | 101 | 88 | 96.3 | 96.7 | 105 | 97.8 | 95.8 | 118 | 95.1 | 107 | 94.6 | 95 | 92.3 | 97.9 | 111 | 100 | 98.9 | 97.5 | 99.2 | 104 | 90.7 | 100 | 104 | 98.7 | 106 | 0 | 0 | 0 | 0 | 0 |
| NCCCC[C@H](N)C(=O)O [L-lysine] | > 10 | > 10 | > 10 | > 10 | > 10 | 92.7 | 102 | 106 | 97.7 | 105 | 110 | 102 | 96.8 | 86 | 106 | 108 | 106 | 99.6 | 98.8 | 104 | 103 | 96.7 | 101 | 97.5 | 99.5 | 111 | 102 | 103 | 93.2 | 114 | 0 | 0 | 0 | 0 | 0 |
| O=C(O)C[C@H]1CC[C@H](c2ccc(-c3ccc(Nc4ccc(C(F)(F)F)nc4)cn3)cc2)CC1 [LCQ908] | > 10 | > 10 | > 10 | > 10 | > 10 | 92.1 | 103 | 95 | 95.7 | 95.5 | 104 | 102 | 98.3 | 100 | 92.4 | 105 | 104 | 103 | 100 | 104 | 95.7 | 102 | 97 | 102 | 90.5 | 99.4 | 102 | 108 | 93.5 | 99.8 | 0 | 0 | 0 | 0 | 0 |
| COc1cccc(-c2ccc([C@@H](Oc3cc(-c4ccc(C[C@H](N)C(=O)O)cc4)nc(N)n3)C(F)(F)F)cc2)c1 [LX1031] | > 10 | > 10 | > 10 | > 10 | > 10 | 99.3 | 98.2 | 102 | 97.3 | 103 | 91.5 | 96.7 | 94.1 | 92.9 | 101 | 105 | 89.6 | 101 | 98.8 | 106 | 96.4 | 93.4 | 95.2 | 102 | 99.9 | 111 | 100 | 111 | 99.3 | 102 | 0 | 0 | 0 | 0 | 0 |
| COc1cc(CN(CCN)C(=O)c2cccs2)ccc1OCc1ccccc1 [M8-B] | > 10 | > 10 | > 10 | > 10 | > 10 | 103 | 89.1 | 108 | 99.7 | 98.5 | 89.5 | 98.4 | 101 | 95.6 | 89.1 | 94.8 | 94.1 | 97.2 | 98 | 102 | 95.1 | 97.6 | 102 | 95.7 | 95.4 | 99.8 | 96.5 | 91.1 | 110 | 96.2 | 0 | 0.1 | 0 | 0 | 0 |
| C=CCn1c(=O)c2cnc(Nc3ccc(N4CCN(C)CC4)cc3)nc2n1-c1cccc(C(C)(C)O)n1 [MK-1775] | 0.218 | 0.399 | 0.981 | 0.49 | 0.466 | 108 | 93.4 | 70.8 | 50.9 | 28.8 | 106 | 99.4 | 96.1 | 35.4 | 25.9 | 100 | 94.7 | 94.1 | 57.4 | 14.2 | 102 | 95.7 | 97.6 | 21.3 | 5.8 | 99 | 89.5 | 91.2 | 33.3 | 10.2 | 13.1 | 12.4 | 9.7 | 14.7 | 13.8 |
| O=C(O)Cn1nnc(-c2cc(N3CCC(Oc4cc(F)ccc4Br)CC3)no2)n1 [MK-8245] | > 10 | > 10 | > 10 | > 10 | > 10 | 102 | 108 | 97.7 | 90.8 | 96.5 | 101 | 106 | 99.5 | 102 | 94.8 | 98.3 | 94.8 | 98.8 | 92.2 | 86.3 | 103 | 102 | 96.2 | 101 | 98.6 | 109 | 95.8 | 88.3 | 88.8 | 76.1 | 0 | 0 | 0.1 | 0 | 2.2 |
| c1ccc(-c2ccc(CNc3nc(-c4ccccn4)nnc3-c3ccccc3)cc2)cc1 [ML228] | 0.818 | 0.692 | 0.339 | 0.685 | 0.484 | 96 | 102 | 101 | 48.6 | 17.5 | 104 | 98.2 | 89.3 | 49.5 | 13.6 | 93.1 | 92.3 | 97 | 9.5 | 4.5 | 100 | 99.1 | 94.3 | 38.8 | 3.6 | 91.4 | 104 | 103 | 31.4 | 21 | 10.7 | 11.2 | 16.9 | 12.8 | 12.5 |
| COc1ccc(-c2cnc3c(-c4cccc5ncccc45)cnn3c2)cc1 [ML347] | > 10 | > 10 | > 10 | > 10 | > 10 | 106 ± 9.3 | 101 ± 7.9 | 99.5 ± 2.8 | 101 ± 4.9 | 93.4 ± 8.5 | 107 ± 14 | 100 ± 5.3 | 96.5 ± 2 | 96.05 ± 0.35 | 98.9 ± 8.6 | 102 | 100 | 99 | 99.3 | 105 | 101 ± 2 | 100 ± 3.1 | 105 ± 6.3 | 102 ± 1.8 | 96.8 ± 4.3 | 105 ± 4 | 96 ± 9.3 | 99.3 ± 3.2 | 98.1 ± 0.57 | 97.2 ± 6.9 | 0.1 ± 0.14 | 0 | 0 | 0 | 0 |
| NC(=O)C[S+]([O-])C(c1ccccc1)c1ccccc1 (stereo not given) [MODAFINIL] | > 10 | > 10 | > 10 | > 10 | > 10 | 93 ± 6.5 | 99.4 ± 0.57 | 99.3 ± 6.7 | 102.2 ± 0.35 | 95.8 ± 7.3 | 103 ± 3.7 | 99.5 ± 2.2 | 109 ± 10 | 100.4 ± 0.42 | 97 ± 2.3 | 97.3 ± 6 | 103 ± 14 | 96.2 ± 15 | 88.6 ± 4 | 104 ± 5.5 | 99.2 ± 1.5 | 97.8 ± 2.8 | 99.7 ± 2.9 | 98.2 ± 3 | 100 ± 4.6 | 102 ± 17 | 103 ± 1.9 | 99.2 ± 12 | 96.1 ± 15 | 95.3 ± 4.4 | 0 | 0 | 0 | 0 | 0.55 ± 0.78 |
| Cc1nc2c(O)cccc2c(=O)[nH]1 [NU-1025] | > 10 | > 10 | > 10 | > 10 | > 10 | 96.6 | 99.6 | 102 | 106 | 99.8 | 101 | 92.4 | 96.6 | 96.7 | 101 | 99.7 | 102 | 98.7 | 100 | 98.1 | 104 | 100 | 100 | 99.9 | 101 | 104 | 109 | 98.4 | 109 | 101 | 0 | 0 | 0 | 0 | 0 |
| CCCCCCCC/C=C\CCCCCCCC(=O)N[C@@H](CO)Cc1ccc(O)cc1 [OMDM-2] | > 10 | > 10 | > 10 | > 10 | > 10 | 106 | 102 | 99.5 | 96.7 | 97.3 | 87.1 | 94.4 | 97.1 | 91.8 | 102 | 92.4 | 92 | 97.4 | 93.7 | 109 | 96.8 | 101 | 96.7 | 100 | 99.7 | 100 | 93.3 | 114 | 106 | 99.6 | 0 | 0 | 0 | 0 | 0 |
